Measured values reported in PMC4457826 (PLoS Pathogens, 2015).

Experiments:
[1] = test system: myc-tagged D762R/D764R (MRGR) USP7; test: Co-immunoprecipitation with myc-tagged D762R/D764R (MRGR) USP7 from 293T cells; type: cell-based, human; conditions: anti-myc IP, Western blot, Fig 5
Description: (§1) 293T cells were grown in Dulbecco’s modified Eagle’s medium (DMEM) (Gibco) with 10% fetal calf serum. 293T cells at 70% confluence in a 10-cm-diameter dish were transfected with 10 μg pCANmycUSP7 expressing WT USP7 or D762R/D764R (MRGR) USP7 or with pcDNA3.1 (negative control), in each case using 20 μl PolyJet (SignaGen Laboratories) transfection reagent. Cells were transferred to a 15-cm-diameter dish 24 h post-transfection and harvested 48 h post-transfection. For experiments on USP7-ICP0 interactions, 293T cells were co-transfected with 1 μg pCANmycUSP7 expressing WT or D762R/D764R (MRGR) USP7 and either 1 μg pCI-110 ICP0 or 1 μg pcDNA3.1. For controls lacking USP7, 1 μg pCI-110 ICP0 was co-transfected with 1 μg pcDNA3.1. In each case 4 μl PolyJet (SignaGen Laboratories) transfection reagent was used.
Protein samples were subjected to SDS-PAGE and transferred to nitrocellulose. Membranes were blocked in 5% skim milk in Tris-buffered saline with 1% Tween (TBS-T) and then incubated with antibodies against ICP0 (H1A027 from Virusys Corporation; 1:5000 dilution), myc (sc-40 from Santa Cruz Biotechnology; 1:5000 dilution), NP95/UHRF1 (A301-470A from Bethyl Laboratories; 1:1000 dilution), GMPS (rabbit serum raised against full-length GMPS [17]; 1:5000 dilution) and actin (MA5-15739 from Pierce; 1:20,000 dilution). After washing, blots were probed with goat anti-mouse or goat anti-rabbit peroxidase (Santa Cruz Biotechnology; 1:5000 dilution) and developed using chemiluminescence reagents (Santa Cruz biotechnology).
293T cells transfected as described above were washed in phosphate-buffered saline (PBS) and lysed on ice for 45 min in a 4x volume of RIPA buffer (50 mM Tris-HCl [pH 8], 150 mM NaCl, 0.1% sodium deoxycholate, 0.5% NP-40) with complete protease inhibitors (Sigma P8340), followed by centrifugation. 1 mg of each clarified lysate was incubated with 1 μg of anti-myc antibody for 1h, followed by incubation with 30 μl of A/G PLUS agarose resin (Santa Cruz Biotechnology) for 2 h at 4°C with end-over-end rotation. The resin was harvested by centrifugation, washed in RIPA buffer, and then boiled in SDS loading buffer. Immunoprecipitated proteins were separated by SDS-PAGE and analyzed by Western blotting, as described above.

[2] = test system: 293T cells; test: ICP0 input levels with and without USP7, Western blot, 293T cells; type: cell-based; conditions: input levels of ICP0 with and without USP7, Fig 5A
Description: as §1
Protein samples were subjected to SDS-PAGE and transferred to nitrocellulose. […]
293T cells transfected as described above were washed in phosphate-buffered saline (PBS) and lysed on ice for 45 min in a 4x volume of RIPA buffer (50 mM Tris-HCl [pH 8], 150 mM NaCl, 0.1% sodium deoxycholate, 0.5% NP-40) with complete protease inhibitors (Sigma P8340), followed by centrifugation. […] Immunoprecipitated proteins were separated by SDS-PAGE and analyzed by Western blotting, as described above.

[3] = test system: USP7-CTD mutant D764A; test: GST pull-down, USP7-CTD D764A; type: binding, human
Description: (§2) Fragments representing USP7-CTD Ubl domains were prepared using ligation independent cloning with In-Fusion (Clontech) in p15TV-L. The boundaries of the Ubl domain constructs are Ubl12 (535–776), Ubl123 (535–889), Ubl345 (776–1102), Ubl45 (886–1102) and USP7-CTD (535–1102). Plasmids expressing USP7-NTD, USP7, and myc-USP7 WT (pCANmycUSP7) were described previously. USP7 mutants E759A, D762A, D764A and D762A/D764A in Ubl123 were synthesized (Genscript) and inserted into the pET15b plasmid. USP7 mutants E759A, D762A, D764A, D762A/D764A and D762R/D764R in USP7-CTD were prepared by ACGT Corporation. The D762R/D764R mutant was then sub-cloned into wild-type pCANmycUSP7 for co-IP assays. The mammalian ICP0 expression construct pCI-110 ICP0 was obtained from Roger Everett.
(§3) The ICP0, GMPS and UHRF1 WT and mutant peptides were cloned into pGEX-2TK and expressed in E. coli BL21(DE3). GST-ICP0 594–775 was obtained from Roger Everett. The GST-ICP0 or GST-GMPS or GST-UHRF1 or GST-ICP0 594–775 cell pellets from 500 ml of LB broth were re-suspended with PBS and lysed using sonication. The cleared lysates were applied to 500 μl of equilibrated glutathione-sepharose beads and incubated with rocking for 60 min at 4°C. Unbound proteins were removed by washing with PBS. Bound proteins were eluted with 50 mM Tris pH 8.0 and 100 mM NaCL containing 30 mM reduced glutathione. […]

[4] = biological target: T1, USP7 Ubl123 (Homo sapiens, UniProt Q93009); test: GST pull-down, Ubl123; type: binding; conditions: USP7 domain mapping, Fig 1B/1E, listed as GST-ICP0 615–629
T1 construct: Ubl123 (535–889); His tag (inferred from nickel-NTA purification; vector p15TV-L); made in house; host or cells: E. coli BL21(DE3)mgk
Description: as §2
(§4) The ICP0, GMPS and UHRF1 WT and mutant peptides were cloned into pGEX-2TK and expressed in E. coli BL21(DE3). GST-ICP0 594–775 was obtained from Roger Everett. The GST-ICP0 or GST-GMPS or GST-UHRF1 or GST-ICP0 594–775 cell pellets from 500 ml of LB broth were re-suspended with PBS and lysed using sonication. The cleared lysates were applied to 500 μl of equilibrated glutathione-sepharose beads and incubated with rocking for 60 min at 4°C. Unbound proteins were removed by washing with PBS. Bound proteins were eluted with 50 mM Tris pH 8.0 and 100 mM NaCL containing 30 mM reduced glutathione. Equal amounts (250 μg) of the various USP7 proteins were incubated with 250 μg of the GST-ICP0 or GST-GMPS or GST-UHRF1 or GST-ICP0 594–775 peptides in 50 mM Tris pH 8.0, 100 mM NaCl, 5 mM DTT, 5% glycerol, 0.1 mM Benzamidine and 0.05 mM PMSF, applied to equilibrated glutathione-sepharose beads and incubated overnight with rocking at 4°C. After extensive washing, bound proteins were eluted with 50 mM Tris pH 8.0 and 100 mM NaCl containing 30 mM reduced glutathione.

[5] = test system: FL-USP7; test: GST pull-down, USP7-FL; type: binding, human
Description: The USP7 binding region is found within ICP0 residues 594–633 and mutagenesis studies have shown that K620 is essential for the interaction. In order to facilitate crystallization and structure determination, we set out to identify a shorter peptide that is capable of binding to USP7. To this end, a series of overlapping GST-ICP0 fusions (591–605, 595–609, 599–613, 603–617, 607–621, 611–625, 615–629, 619–633) were prepared (see Fig 1A for sequence details) and used in GST pull-down assays. […] Overall, our GST pull-down assays identified ICP0 residues between 619 and 629 as important mediators of USP7 binding in agreement with a previous study.
(§5) Next we determined which region of USP7-CTD interacted with the ICP0 615–629 peptide. FL-USP7, USP7-CTD as well as Ubl12, Ubl123, Ubl345 and Ubl45 (Fig 1B) were used as prey in GST pull-down assays using GST-ICP0 615–629. FL-USP7 and USP7-CTD were used as positive controls while GST alone and USP7-NTD were used as negative controls.
as §4

[6] = biological target: T2, Ubl123 mutant E759A (Homo sapiens, UniProt Q93009, E759A); test: GST pull-down, Ubl123 E759A; type: binding; conditions: Fig 3F
T2 construct: Ubl123 (535–889); (vector pET15b); made in house; host or cells: E. coli BL21(DE3)mgk
Description: as §2, §3

[7] = test system: USP7-CTD mutant D762A; test: GST pull-down, USP7-CTD D762A; type: binding, human
Description: as §2, §4

[8] = biological target: T3, Ubl123 mutant D762A (Homo sapiens, UniProt Q93009, D762A); test: GST pull-down, Ubl123 D762A; type: binding; conditions: Fig 3F
T3 construct: Ubl123 (535–889); (vector pET15b); made in house; host or cells: E. coli BL21(DE3)mgk
Description: as §2, §3

[9] = test system: USP7-NTD; test: GST pull-down, USP7-NTD; type: binding, human; conditions: USP7 domain mapping, Fig 1B/1E, listed as GST-ICP0 615–629
Text: as §5, §4

[10] = test system: USP7-CTD mutant E759A; test: GST pull-down, USP7-CTD E759A; type: binding, human
Description: as §2, §3

[11] = biological target: T4, USP7-CTD (Homo sapiens, UniProt Q93009); test: GST pull-down, USP7-CTD; type: binding
T4 construct: USP7-CTD (535–1102); His tag (inferred from nickel-NTA purification; vector p15TV-L); made in house; host or cells: E. coli BL21(DE3)mgk
Description: as §2, §4

[12] = test system: USP7-CTD mutant D762A/D764A; test: GST pull-down, USP7-CTD D762A/D764A; type: binding, human
Description: as §2, §4

[13] = test system: USP7 Ubl45; test: GST pull-down, Ubl45; type: binding, human; conditions: USP7 domain mapping, Fig 1B/1E, listed as GST-ICP0 615–629
Description: as §2, §3

[14] = biological target: T5, USP7 Ubl12 (Homo sapiens, UniProt Q93009); test: GST pull-down, Ubl12; type: binding; conditions: USP7 domain mapping, Fig 1B/1E, listed as GST-ICP0 615–629
T5 construct: Ubl12 (535–776); His tag (inferred from nickel-NTA purification; vector p15TV-L); made in house; host or cells: E. coli BL21(DE3)mgk
Description: as §2, §3

[15] = biological target: T6, Ubl123 mutant D762A/D764A (Homo sapiens, UniProt Q93009, D762A/D764A); test: GST pull-down, Ubl123 D762A/D764A; type: binding; conditions: Fig 3F
T6 construct: Ubl123 (535–889); (vector pET15b); made in house; host or cells: E. coli BL21(DE3)mgk
Description: as §2, §3

[16] = test system: USP7 Ubl345; test: GST pull-down, Ubl345; type: binding, human; conditions: USP7 domain mapping, Fig 1B/1E, listed as GST-ICP0 615–629
Description: as §2, §3

[17] = biological target: T7, Ubl123 mutant D764A (Homo sapiens, UniProt Q93009, D764A); test: GST pull-down, Ubl123 D764A; type: binding; conditions: Fig 3F
T7 construct: Ubl123 (535–889); (vector pET15b); made in house; host or cells: E. coli BL21(DE3)mgk
Description: as §2, §3

[18] = test system: USP7-CTD mutant D762R/D764R; test: GST pull-down, USP7-CTD D762R/D764R; type: binding, human
Description: as §2, §3

[19] = GST pull-down, USP7 domain mapping, Fig 1B/1E, listed as GST-ICP0 615–629

T4 sequence (Q93009 535-1102): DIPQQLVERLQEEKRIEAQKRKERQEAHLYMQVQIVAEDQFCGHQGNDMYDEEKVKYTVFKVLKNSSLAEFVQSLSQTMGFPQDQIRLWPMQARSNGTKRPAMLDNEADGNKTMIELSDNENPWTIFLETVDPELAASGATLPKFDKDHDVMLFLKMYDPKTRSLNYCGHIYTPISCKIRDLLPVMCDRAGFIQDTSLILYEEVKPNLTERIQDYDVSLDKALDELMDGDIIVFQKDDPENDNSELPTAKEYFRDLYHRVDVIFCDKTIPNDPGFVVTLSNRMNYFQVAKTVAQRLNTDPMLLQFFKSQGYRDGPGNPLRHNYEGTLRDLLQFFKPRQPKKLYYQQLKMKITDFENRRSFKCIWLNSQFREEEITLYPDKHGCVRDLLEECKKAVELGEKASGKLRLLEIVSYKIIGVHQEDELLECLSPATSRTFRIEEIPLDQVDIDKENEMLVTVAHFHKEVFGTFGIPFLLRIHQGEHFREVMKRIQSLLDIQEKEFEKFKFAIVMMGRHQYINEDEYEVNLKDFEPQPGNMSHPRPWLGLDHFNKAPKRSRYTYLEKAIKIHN
T3 sequence (Q93009 535-889 D762A): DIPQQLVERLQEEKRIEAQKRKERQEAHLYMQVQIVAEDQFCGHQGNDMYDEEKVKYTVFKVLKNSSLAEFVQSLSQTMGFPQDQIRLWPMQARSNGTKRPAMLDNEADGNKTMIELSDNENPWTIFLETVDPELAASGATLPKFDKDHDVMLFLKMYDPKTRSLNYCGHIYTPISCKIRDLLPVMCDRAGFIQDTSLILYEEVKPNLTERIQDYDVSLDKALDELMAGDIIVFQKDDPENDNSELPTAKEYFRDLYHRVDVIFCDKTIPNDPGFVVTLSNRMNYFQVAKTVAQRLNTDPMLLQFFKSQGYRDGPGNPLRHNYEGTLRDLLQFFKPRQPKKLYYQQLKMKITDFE
T1 sequence (Q93009 535-889): as the sequence (Q93009 535-889 D762A) above, with A228D counted along it
T6 sequence (Q93009 535-889 D762A/D764A): as the sequence (Q93009 535-889 D762A) above, with D230A counted along it
T2 sequence (Q93009 535-889 E759A): as the sequence (Q93009 535-889 D762A) above, with E225A, A228D counted along it
T7 sequence (Q93009 535-889 D764A): as the sequence (Q93009 535-889 D762A) above, with A228D, D230A counted along it
T5 sequence (Q93009 535-776): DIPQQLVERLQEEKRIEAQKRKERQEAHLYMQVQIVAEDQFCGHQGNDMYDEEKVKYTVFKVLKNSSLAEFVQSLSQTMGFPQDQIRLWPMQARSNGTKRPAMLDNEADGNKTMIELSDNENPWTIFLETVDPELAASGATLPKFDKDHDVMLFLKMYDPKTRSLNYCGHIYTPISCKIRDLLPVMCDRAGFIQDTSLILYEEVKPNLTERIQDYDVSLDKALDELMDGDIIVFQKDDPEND

Substance	recovery with D762R/D764R USP7 (co-IP), in words [1]	effect of WT USP7 and D762R/D764R mutant on ICP0 level [2]	Binding to USP7-CTD mutant D764A [3]	Interaction with ICP0 615-629: Ubl123 [4]	Interaction with USP7-FL (overlapping GST-ICP0 peptides) ([5]; GST fusions 250 μg + USP7 250 μg, 50 mM Tris pH 8.0, 100 mM NaCl, 5 mM DTT, 5% glycerol, overnight 4°C, Coomassie stained gel, Fig 1A/1C, symbols not defined)	Interaction with ICP0 615-629: USP7-FL [5, 19]	Binding to Ubl123 mutant E759A [6]	Binding to USP7-CTD mutant D762A [7]	Binding to Ubl123 mutant D762A [8]	Interaction with ICP0 615-629: USP7-NTD [9]	Binding to USP7-CTD mutant E759A [10]	Interaction with USP7-CTD (overlapping GST-ICP0 peptides) ([11]; GST fusions 250 μg + USP7-CTD 250 μg, 50 mM Tris pH 8.0, 100 mM NaCl, 5 mM DTT, 5% glycerol, overnight 4°C, Coomassie stained gel, Fig 1A/1D, symbols not defined)	Interaction with ICP0 615-629: USP7-CTD [11, 19]	Binding to USP7-CTD mutant D762A/D764A [12]	Interaction with ICP0 615-629: Ubl45 [13]	Interaction with ICP0 615-629: Ubl12 [14]	Binding to Ubl123 mutant D762A/D764A [15]	Interaction with ICP0 615-629: Ubl345 [16]	Binding to Ubl123 mutant D764A [17]	Binding to USP7-CTD mutant D762R/D764R [18]
ICP0: Herpes simplex virus-1 immediate-early protein ICP0, expressed in 293T cells	decreased (2-fold in multiple experiments) but not abrogated	stabilizing effect on ICP0	–	–	–	–	–	–	–	–	–	–	–	–	–	–	–	–	–	–
PRGPRKCARKTRHAE [ICP0 615–629, GST-ICP0 fusion of ICP0 residues 615–629]	–	–	Binding was abolished	interacted	strongest interaction	FL-USP7 as well as USP7-CTD but not USP7-NTD or GST alone interacted	Binding was abolished	Binding was abolished	Binding was abolished	not USP7-NTD	Binding was abolished	strongest interaction	FL-USP7 as well as USP7-CTD but not USP7-NTD or GST alone interacted	Binding was abolished	no interaction	interacted	Binding was abolished	no interaction	Binding was abolished	–
TGKGKWKR [UHRF1 peptide, UHRF1 peptide with KxxxK motif, residues 642–649]	–	–	–	–	–	–	–	disrupted	–	–	–	–	–	disrupted	–	–	–	–	–	disrupted
